The values that follow come from patent US6287813A, “Antibiotic-based gene regulation system” (Cistronics Cell Technology GmbH, priority 1999, dated 2001).

One assay deals with T1, Pip/PPTR (Streptomyces coelicolor, UniProt Q9ADN3).
T1 construct: gel retardation with ptr promoter DNA (PPTR) of S. pristinaespiralis
T1 sequence (Q9ADN3 1-252): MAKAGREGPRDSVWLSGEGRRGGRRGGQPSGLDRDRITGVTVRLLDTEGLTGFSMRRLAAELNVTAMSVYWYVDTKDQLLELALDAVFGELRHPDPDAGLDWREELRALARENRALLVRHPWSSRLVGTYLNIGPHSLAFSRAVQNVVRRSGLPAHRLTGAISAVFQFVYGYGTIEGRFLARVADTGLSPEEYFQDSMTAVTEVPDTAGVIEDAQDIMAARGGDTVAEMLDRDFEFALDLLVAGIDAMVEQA
The assay is described as follows: Gel retardation assay of Pip/PPTR interaction. Conditions: Pip 0.2 pmol titrated with 50 pmol to 0.01 pmol antibiotic. It counts as binding. The text has this:
FIG. 1: Gel retardation assay showing Pip/PPTR interaction. PPTR of S. pristinaespiralis contains 3 dyad symmetrical binding sites (lane A; PPTR in the absence of Pip) all of which are saturated at relatively large amounts of purified Pip (0.4 pmol; […]) resulting in a single shifted band. Smaller amounts of Pip (0.02 pmol) presented an intermediate situation in which all possible permutations of site occupancy are represented in three distinct retarded bands (lane C). Pip (0.2 pmol lanes D-M) was titrated with a range of PI from 50 pmol to 0.01 pmol (lanes D-H; D: 50 pmol; E: 10 pmol; F: 1 pmol; G: 0.1 pmol; H: 0.01 pmol). […]
Chinese hamster ovary cells (CHO-K1, ATCC: CCL 61), Baby hamster kidney cells (BHK-21, ATCC: CRL-8544), and HeLa cells (ATCC: CRL-7923) as well as stable cell lines CHO-PIT1, CHO-PIT2, CHO-TWIN195, CHO-TWIN1108 and CHO-PIT1-SEAP were cultured as described before (Fussenegger et al., 1998, Nat. Biotechnol. 16,468-472) in the presence of appropriate antibiotics: G418 400 μg/ml; zeocin 100 μg/ml. […] Transient transfected cells were routinely analyzed after 48 h for GFP or SEAP expression using fluorescence microscopy and p-nitrophenolphosphate-based light absorbance timecourse, respectively, as described before (Fussenegger et al., 1998, Nat. Biotechnol. 16, 468-472; Berger et al., 1988, Gene 66, 1-10 b). […]

Another assay has as its target T2, PIT/PPIR system (Streptomyces coelicolor, UniProt Q9ADN3).
T2 construct: pMF156/pTWIN in CHO cells, PPIR-SEAP or GFP reporter
T2 sequence (Q9ADN3 1-252): T1 sequence (Q9ADN3 1-252)
Kind of assay: Positive feedback vector pMF170 (PPIR-GFP-IRES-PIT-pA), GFP fluorescence microscopy. The assay is classed as cell-based. Conditions: pMF170 in CHO-K1, BHK-21 or HeLa cells. The source says:
These positive feedback regulation vectors that were constructed contain both the green fluorescent protein GFP and PIT in a dicistronic, PPIR -driven configuration.
For construction of the autoregulatory system, PIT was excised from pMF156 by EcoRI/HindIII and cloned into the polylinker of the eukaryotic expression vector pSBC-2 (EcoRI/HindIII). As a pSBC-2 derivative, the resulting plasmid pMF169 is compatible to the pSBC-1 derivative pMF164 (PPIR -GFP) and allows fusion of both expression units via their SspI/NotI restriction sites, thereby generating pMF170. pMF170 contains a dicistronic PPIR -regulated expression unit encoding GFP in the first and PIT in the second cistron. Cap-independent translation initiation of the second cistron is enabled by a picornaviral internal ribosomal entry site (IRES) encoded upstream of PIT.

With pristinamycin I [PI], the “Release of Pip from PPTR” value at Pip/PPTR is “completely released”. The “GFP-expression in the presence of PI” value on PIT/PPIR system is reported as “completely repressed”.
